# Source: patent US11149031B2, “Substituted N-(3-fluoropropyl)-pyrrolidine compounds, processes for their preparation and therapeutic uses thereof” (SANOFI, priority 2016, dated 2021)
# Like-named read-outs stand apart in the source and are kept apart here.
# How the values were obtained:
# [1] = target: His6-ERα298-554 Y537S mutant (ERα ligand-binding domain) (Homo sapiens (Human), UniProt P03372, Y537S); assay: Test A: biochemical antagonist activity, LanthaScreen TR-FRET ERα coactivator assay, Y537S mutant; conditions: read-out: Antagonism Y537S IC50
# Sequence of His6-ERα298-554 Y537S mutant (ERα ligand-binding domain) (P03372 298-554 Y537S): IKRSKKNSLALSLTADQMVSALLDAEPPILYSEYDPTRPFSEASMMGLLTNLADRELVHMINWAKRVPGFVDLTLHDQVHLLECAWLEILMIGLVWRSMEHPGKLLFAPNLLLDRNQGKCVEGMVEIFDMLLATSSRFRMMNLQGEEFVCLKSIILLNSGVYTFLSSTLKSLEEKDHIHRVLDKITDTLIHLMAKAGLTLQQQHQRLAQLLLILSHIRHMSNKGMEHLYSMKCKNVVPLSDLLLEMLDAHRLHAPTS
# In short: (§1)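 His6-ERα LBD (0.5 nM) with 0.5 nM Tb-anti-His6 antibody, 250 nM PGC1a peptide and 3 nM (or 10 nM) estradiol in 100 mM potassium phosphate pH 7.4 with 5 mM DTT, incubated overnight at room temperature with compound.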
# [2] = tested on: MCF7 cells expressing mutant estrogen receptor Asp 538 Gly; assay: Test B: cell proliferation/viability assay (CellTiter-Glo) on MCF7 Asp 538 Gly mutant; assay type: cell-based; conditions: Homo sapiens, MCF7, 168 h, MCF7 cells expressing ER Asp 538 Gly mutant, 7 days of compound exposure, read-out: proliferation MCF7 D538G IC50
# From the text: (§2) Test B: Cell Proliferation/Viability Assay on MCF7 (Breast Tumor Cells) WT and Mutants Cell Lines
# (§3) Test B involves measuring the in vitro proliferation activity of the compounds of the invention by analyzing the viability of the tumor cells.
# (§4) The measurements of the viability were made using a breast cancer cell viability assay as described hereunder.
# (§5) MCF7 cells expressing (and dependent) on mutants estrogen receptor Tyr 537 Ser or Asp 538 Gly were generated by transfection of MCF7 parental cells (ATCC) with expression vectors coding for different mutants of estrogen receptor Tyr 537 Ser or Asp 538 Gly. The cells were first selected by antibiotic (related to vector expression) and then selected for their growth dependence on estrogen receptor based on their ability to grow in vitro in absence of estradiol (parental cell line die in absence of estradiol).
# (§6) MCF7 cells (ATCC) or MCF7 cells expressing (and dependent) on mutants estrogen receptor Tyr 537 Ser or Asp 538 Gly were seeded in 384 wells microplate at concentration of >999 cells/30 μL per well in red phenol free MEM medium containing 5% charcoal dextran striped FBS. The following day, 9 points serial 1:5 dilution of each compound were added to the cells in 20 μL at final concentrations ranging from 3-0.000001 μM. After 7 days of compound exposure, 50 μL of CellTiter-Glo (promega) was added to the cells and relative luminescence arbitrary units (RLUs) were determined in luminescence plate reader (Envision device). CellTiter-Glo was added to 50 μL medium without cells to determine the background signal.
# (§7) The percent of viability of each sample was determined as follows: (RLU sample−RLU background/RLU untreated−RLU background)*100=% viability.
# [3] = target: His6-ERα298-554 WT (ERα ligand-binding domain) (Homo sapiens (Human), UniProt P03372); assay: Test A: biochemical antagonist activity, LanthaScreen TR-FRET ERα coactivator assay, WT; conditions: read-out: Antagonism WT IC50
# Sequence of His6-ERα298-554 WT (ERα ligand-binding domain) (P03372 298-554): as the sequence (P03372 298-554 Y537S) above, with S240Y counted along it
# In short: as §1
# [4] = target: His6-ERα298-554 D538G mutant (ERα ligand-binding domain) (Homo sapiens (Human), UniProt P03372, D538G); assay: Test A: biochemical antagonist activity, LanthaScreen TR-FRET ERα coactivator assay, D538G mutant; conditions: read-out: Antagonism D538G IC50
# Sequence of His6-ERα298-554 D538G mutant (ERα ligand-binding domain) (P03372 298-554 D538G): as the sequence (P03372 298-554 Y537S) above, with S240Y, D241G counted along it
# In short: as §1
# [5] = tested on: MCF7 cells expressing mutant estrogen receptor Tyr 537 Ser; assay: Test B: cell proliferation/viability assay (CellTiter-Glo) on MCF7 Tyr 537 Ser mutant; assay type: cell-based; conditions: Homo sapiens, MCF7, 168 h, MCF7 cells expressing ER Tyr 537 Ser mutant, 7 days of compound exposure, read-out: proliferation MCF7 Y537S IC50
# From the text: as §2, §3, §4, §5, §6, §7
# [6] = target: ERα in MCF7 cells (Homo sapiens (Human), UniProt P03372); assay: Test C: estrogen receptor degradation activity, ERα in cell western assay in MCF7 cells; assay type: cell-based; conditions: for DC50: 4 hours post compound addition, ERα in cell western, read-out: Degradation IC50; for % Degradation at 3 μM: 4 hours, relative to fulvestrant
# Sequence of ERα in MCF7 cells (P03372 whole entry): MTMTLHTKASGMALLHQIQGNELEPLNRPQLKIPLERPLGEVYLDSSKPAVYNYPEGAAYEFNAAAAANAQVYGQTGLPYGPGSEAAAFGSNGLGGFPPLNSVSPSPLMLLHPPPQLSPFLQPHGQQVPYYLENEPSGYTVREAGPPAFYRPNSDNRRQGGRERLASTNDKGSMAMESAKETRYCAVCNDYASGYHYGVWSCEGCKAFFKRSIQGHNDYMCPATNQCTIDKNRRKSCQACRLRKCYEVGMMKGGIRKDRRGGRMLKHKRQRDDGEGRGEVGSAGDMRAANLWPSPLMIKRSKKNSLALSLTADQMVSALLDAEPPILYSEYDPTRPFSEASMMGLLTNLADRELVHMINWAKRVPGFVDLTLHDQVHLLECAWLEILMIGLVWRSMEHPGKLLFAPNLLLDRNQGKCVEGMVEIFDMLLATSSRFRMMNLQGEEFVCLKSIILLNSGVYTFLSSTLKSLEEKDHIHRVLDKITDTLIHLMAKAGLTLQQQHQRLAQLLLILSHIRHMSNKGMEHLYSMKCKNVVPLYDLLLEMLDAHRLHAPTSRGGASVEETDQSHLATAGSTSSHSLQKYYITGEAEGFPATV
# In short: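 In-cell western, MCF7, 4 h compound exposure, 3–0.000018 μM final, 9 points, 1:5 steps. Formalin/Triton fix, anti-ER rabbit mAb overnight cold, Alexa 488 secondary plus 2 μM Syto-64. Green intensity = ERα, red = DNA; no-primary wells as background.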
# [7] = tested on: MCF7 cells (breast tumor cells) WT; assay: Test B: cell proliferation/viability assay (CellTiter-Glo) on MCF7 WT; assay type: cell-based; conditions: Homo sapiens, MCF7, 168 h, 7 days of compound exposure
# Description: as §2, §3
# The measurements of the viability were made using a breast cancer cell viability assay as described hereunder. […]
# as §6, §7
# [8] = asterisk (*): protocol using 10 nM estradiol
Structure (SMILES),"IC50 [1, 8] [nM]",IC50 [2] [nM],"IC50 [3, 8] [nM]","IC50 [4, 8] [nM]",IC50 [5] [nM],DC50 [6] [nM],% Degradation at 3 μM [6] [%],IC50 [7] [nM],IC50 ([1]; protocol with 3 nM estradiol) [nM],IC50 ([3]; protocol with 3 nM estradiol) [nM],IC50 ([4]; protocol with 3 nM estradiol) [nM]
"COc1ccc(C2=C(c3ccc(O[C@H]4CCN(CCCF)C4)cc3)c3ccc(O)cc3SC2)c(F)c1 [Example 24, 3-(2-fluoro-4-methoxy-phenyl)-4-[4-[(3S)-1-(3-fluoropropyl)pyrrolidin-3-yl]oxyphenyl]-2H-thiochromen-7-ol]",44,0.9,5,80,6,0.2,91,0.3,,,
"Cc1ccc(C2=C(c3ccc(O[C@H]4CCN(CCCF)C4)cc3)c3ccc(C(=O)O)cc3SC2)c(F)c1 [Example 25, 3-(2-fluoro-4-methyl-phenyl)-4-[4-[(3S)-1-(3-fluoropropyl)pyrrolidin-3-yl]oxyphenyl]-2H-thiochromene-7-carboxylic acid]",> 4000,31,1420,> 4000,160,19,93,16,,,
"CCOc1ccc(C2=C(c3ccc(O[C@H]4CCN(CCCF)C4)cc3)c3ccc(O)cc3SC2)c(F)c1 [Example 26, 3-(4-ethoxy-2-fluoro-phenyl)-4-[4-[(3S)-1-(3-fluoropropyl)pyrrolidin-3-yl]oxyphenyl]-2H-thiochromen-7-ol]",,2,,,10,0.8,90,0.9,39,3,67
"CCOc1ccc(C2=C(c3ccc(O[C@H]4CCN(CCCF)C4)cc3)c3ccc(O)cc3SC2)c(F)n1 [Example 27, 3-(6-ethoxy-2-fluoro-3-pyridyl)-4-[4-[(3S)-1-(3-fluoropropyl)pyrrolidin-3-yl]oxyphenyl]-2H-thiochromen-7-ol]",21,2,2,38,6,0.6,94,0.4,,,
"Oc1ccc2c(c1)SCC(c1ccc3c(c1)OCCO3)=C2c1ccc(O[C@H]2CCN(CCCF)C2)cc1 [Example 28, 3-(2,3-dihydro-1,4-benzodioxin-6-yl)-4-[4-[(3S)-1-(3-fluoropropyl)pyrrolidin-3-yl]oxyphenyl]-2H-thiochromen-7-ol]",41,2,4,68,11,0.3,80,0.7,,,
"CC1(C)Cc2cc(C3=C(c4ccc(O[C@H]5CCN(CCCF)C5)cc4)c4ccc(O)cc4SC3)ccc2N1 [Example 29, 3-(2,2-dimethylindolin-5-yl)-4-[4-[(3S)-1-(3-fluoropropyl)pyrrolidin-3-yl]oxyphenyl]-2H-thiochromen-7-ol]",130,0.9,14,240,6,0.2,92,0.4,,,
"Oc1ccc2c(c1)SCC(c1ccc(OC(F)F)c(F)c1)=C2c1ccc(O[C@H]2CCN(CCCF)C2)cc1 [Example 30, 3-[4-(difluoromethoxy)-3-fluoro-phenyl]-4-[4-[(3S)-1-(3-fluoropropyl)pyrrolidin-3-yl]oxyphenyl]-2H-thiochromen-7-ol]",,2,,,16,1,91,1,415,34,694
"Oc1ccc2c(c1)SCC(c1ccc3c(c1)OC(F)(F)O3)=C2c1ccc(O[C@H]2CCN(CCCF)C2)cc1 [Example 31, 3-(2,2-difluoro-1,3-benzodioxol-5-yl)-4-[4-[(3S)-1-(3-fluoropropyl)pyrrolidin-3-yl]oxyphenyl]-2H-thiochromen-7-ol]",,1,,,6,0.7,86,0.4,59,5,101
"CC1(C)Cc2cc(C3=C(c4ccc(O[C@H]5CCN(CCCF)C5)cc4)c4ccc(O)cc4SC3)ccc2O1 [Example 32, 3-(2,2-dimethyl-3H-benzofuran-5-yl)-4-[4-[(3S)-1-(3-fluoropropyl)pyrrolidin-3-yl]oxyphenyl]-2H-thiochromen-7-ol]",168,1,19,314,6,0.8,87,0.4,,,
"CC(C)(O)c1ccc(C2=C(c3ccc(O[C@H]4CCN(CCCF)C4)cc3)c3ccc(O)cc3SC2)c(F)c1 [Example 33, 3-[2-fluoro-4-(1-hydroxy-1-methyl-ethyl)phenyl]-4-[4-[(3S)-1-(3-fluoropropyl)pyrrolidin-3-yl]oxyphenyl]-2H-thiochromen-7-ol]",596,2,66,1690,22,1,84,4,,,
"[2H]C([2H])([2H])Oc1ccc(C2=C(c3ccc(O[C@H]4CCN(CCCF)C4)cc3)c3ccc(O)cc3SC2)c(F)c1 [Example 34, 4-[4-[(3S)-1-(3-fluoropropyl)pyrrolidin-3-yl]oxyphenyl]-3-[2-fluoro-4-(trideuteriomethoxy)phenyl]-2H-thiochromen-7-ol]",46,0.5,4,83,4,0.4,85,0.5,,,
"Oc1ccc2c(c1)SCC(c1ccc(OC(F)F)cc1F)=C2c1ccc(O[C@H]2CCN(CCCF)C2)cc1 [Example 35, 3-[4-(difluoromethoxy)-2-fluoro-phenyl]-4-[4-[(3S)-1-(3-fluoropropyl)pyrrolidin-3-yl]oxyphenyl]-2H-thiochromen-7-ol]",220,0.3,16,421,2,1,89,0.2,,,
"CCOc1ccc(C2=C(c3ccc(O[C@H]4CCN(CCCF)C4)cc3)c3ccc(O)cc3SC2)c(Cl)c1 [Example 36, 3-(2-chloro-4-ethoxy-phenyl)-4-[4-[(3S)-1-(3-fluoropropyl)pyrrolidin-3-yl]oxyphenyl]-2H-thiochromen-7-ol]",154,0.5,11,257,3,0.2,83,0.5,,,
"Oc1ccc2c(c1)SCC(c1ccc(OC(F)(F)F)cc1F)=C2c1ccc(O[C@H]2CCN(CCCF)C2)cc1 [Example 37, 4-[4-[(3S)-1-(3-fluoropropyl)pyrrolidin-3-yl]oxyphenyl]-3-[2-fluoro-4-(trifluoromethoxy)phenyl]-2H-thiochromen-7-ol]",,0.6,,,4,3,83,0.6,475,41,745
